From US9265777B2, “Antiparasitic agent for fish and method of controlling proliferation of fish parasites” (NIPPON SUISAN KAISHA, LTD., priority 2009, dated 2016)

Test system: Cryptocaryon irritans
Experiment: Example 1: oral administration against parasitism of Cryptocaryon irritans on Pagrus major (1)
Conditions: 50 mg trimethoprim/kg body weight/day orally for three days; three days after the exposure

Question: How did the “number of parasites (left gills, FIG. 1) relative to control plot” value turn out when `COc1cc(Cc2cnc(N)nc2N)cc(OC)c1OC` [TMP, trimethoprim] was run?
Answer: tend to be large

Test system: Cryptocaryon irritans
Experiment: Examples 3 and 4: oral administration of single inhibitors and a combination against Cryptocaryon irritans on Pagrus major
Assay type: in vivo
Conditions: 60 mg/kg fish body weight/day for three days; 60 parasites per plot; P=<0.01
Source text: During the rearing period, 1.4 liters/min. of seawater was supplied. […] After exposure, seven fish each were moved into six 100-liter aquariums. During the rearing period, 1.4 liters/min. of seawater was supplied.

Question: Which “growth rate of parasites (body length as percentage of control plot), difference to control plot” value does the source give for `N=C(N)c1ccc(OCCCCCOc2ccc(C(=N)N)cc2)cc1.O=S(=O)(O)CCO.O=S(=O)(O)CCO` [PMD, isethionic acid pentamidine salt] here?
Answer: statistically significant difference

Question: For `COc1cc(Cc2cnc(N)nc2N)cc(OC)c1OC` [TMP, trimethoprim], which “growth rate of parasites (body length as percentage of control plot), difference to control plot” value is on record?
Answer: statistically significant difference

Question: How did the “growth rate of parasites (body length as percentage of control plot), difference to control plot” value turn out when `CN(Cc1cnc2nc(N)nc(N)c2n1)c1ccc(C(=O)N[C@@H](CCC(=O)O)C(=O)O)cc1` [MTX, methotrexate] was run?
Answer: statistically significant difference

Same assay, conditions: 300 mg/kg fish body weight/day for three days; 60 parasites per plot; P=<0.01

Question: `Cc1nnc(NS(=O)(=O)c2ccc(N)cc2)s1` [SMZ, sulfamethizole] was tested. Which “growth rate of parasites (body length as percentage of control plot), difference to control plot” value did it give?
Answer: statistically significant difference

Question: Which “growth rate of parasites (body length as percentage of control plot), difference to control plot” value does the source give for `COc1cc(NS(=O)(=O)c2ccc(N)cc2)nc(OC)n1` [SDMX, sulfadimethoxine] here?
Answer: statistically significant difference

Question: How did the “growth rate of parasites (body length as percentage of control plot), difference to control plot” value turn out when `Cc1ccnc(NS(=O)(=O)c2ccc(N)cc2)n1` [SMDN, sulfamerazine] was run?
Answer: statistically significant difference

Question: With `COc1cc(NS(=O)(=O)c2ccc(N)cc2)ncn1` [SMMX, sulfamonomethoxine] as the compound, how does the “growth rate of parasites (body length as percentage of control plot), difference to control plot” value read?
Answer: statistically significant difference

Question: How did the “growth rate of parasites (body length as percentage of control plot), difference to control plot” value turn out when `Cc1cc(NS(=O)(=O)c2ccc(N)cc2)nc(C)n1` [SID, sulfisomidine] was run?
Answer: statistically significant difference

Question: Which “growth rate of parasites (body length as percentage of control plot), difference to control plot” value does the source give for sulfisozole [SIZ] here?
Answer: statistically significant difference
